Key:
[1] = system: giant foxtail; experiment: Test B pre/postemergence giant foxtail; type: in vivo, Setaria faberii
Summary of the method: (§1)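 Response is a visual 0-to-10 score relative to untreated plants, where 0 means no effect and 10 means complete control, taken twelve to sixteen days after application. Treatments went onto soil at planting and onto foliage of 1- to 4-leaf plants, using a surfactant-containing non-phytotoxic solvent.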

[2] = system: velvetleaf; experiment: Test B pre/postemergence velvetleaf; type: in vivo, Abutilon theophrasti
Summary of the method: as §1

[3] = system: wild oat; experiment: Test B pre/postemergence wild oat; type: in vivo, Avena fatua
Summary of the method: as §1

[4] = system: bamyardgrass; experiment: Test B flood test barnyardgrass; type: in vivo, Echinochloa crus-galli
Summary of the method: (§2)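 Flood test on plants grown to the 2-leaf stage; treated plants kept in greenhouse twelve to sixteen days, then visually rated against controls on a 0 (no effect) to 10 (complete control) scale.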

[5] = system: smallflower flatsedge; experiment: Test B flood test smallflower flatsedge; type: in vivo, Cyperus difformis
Summary of the method: as §2

[6] = system: pigweed; experiment: Test B pre/postemergence pigweed; type: in vivo, Amaranthus retroflexus
Summary of the method: as §1

[7] = system: wheat; experiment: Test B pre/postemergence wheat; type: in vivo, Triticum aestivum
Summary of the method: as §1

[8] = system: morningglory; experiment: Test B pre/postemergence morningglory; type: in vivo, Ipomoea hederacea
Summary of the method: as §1

[9] = system: bedstraw; experiment: Test B pre/postemergence bedstraw; type: in vivo, Galium aparine
Summary of the method: as §1

[10] = system: blackgrass; experiment: Test B pre/postemergence blackgrass; type: in vivo, Alopecurus myosuroides
Summary of the method: as §1

[11] = system: crabgrass; experiment: Test B pre/postemergence crabgrass; type: in vivo, Digitaria sanguinalis
Summary of the method: as §1

[12] = system: surinam grass; experiment: Test B pre/postemergence surinam grass; type: in vivo, Brachiaria decumbens
Summary of the method: as §1

[13] = system: soybean; experiment: Test B pre/postemergence soybean; type: in vivo, Glycine max
Summary of the method: as §1

[14] = system: cocklebur; experiment: Test B pre/postemergence cocklebur; type: in vivo, Xanthium strumarium
Summary of the method: as §1

[15] = system: rice; experiment: Test B flood test rice; type: in vivo, Oryza sativa
Summary of the method: as §2

[16] = system: corn; experiment: Test B pre/postemergence corn; type: in vivo, Zea mays
Summary of the method: as §1

[17] = Preemergence, Rate 62 g/ha, scale of 0 to 10 where 0 is no effect and 10 is complete control
[18] = Preemergence, Rate 250 g/ha, scale of 0 to 10 where 0 is no effect and 10 is complete control
[19] = Preemergence, Rate 500 g/ha, scale of 0 to 10 where 0 is no effect and 10 is complete control
[20] = Rate 62 g/ha, Postemergence, scale 0 to 10 (0 no effect, 10 complete control)
[21] = Rate 125 g/ha, Postemergence, scale of 0 to 10 where 0 is no effect and 10 is complete control
[22] = Rate 250 g/ha, Postemergence, scale of 0 to 10 where 0 is no effect and 10 is complete control
[23] = Pre-emergence, Rate 1000 g/ha, scale 0 to 10 (0 no effect, 10 complete control)
[24] = Rate 62 g/ha, headed Pre-emergence (flood test species), scale 0 to 10 (0 no effect, 10 complete control)
[25] = Rate 125 g/ha, Pre-emergence, flood test species, scale 0 to 10 where 0 is no effect and 10 is complete control
[26] = Rate 250 g/ha, Pre-emergence, flood-test species, scale 0 to 10, 0 is no effect, 10 is complete control
[27] = Rate 500 g/ha, Pre-emergence, flood test species, scale 0 to 10 (0 no effect, 10 complete control)
[28] = Rate 500 g/ha, Postemergence, scale 0 to 10, 0 no effect, 10 complete control

CC(C)N(C(=O)n1oc(=O)n(C2CCOCC2)c1=O)c1ccc(F)cc1 [Compound 310]
Giant foxtail plant response rating [1, 17]: 10
Giant foxtail plant response rating (0 to 10 scale) ([1]; Preemergence, Rate 125 g/ha): 10
Giant foxtail plant response rating [1, 18]: 10
Giant foxtail plant response rating [1, 19]: 10
Giant foxtail plant response rating [1, 20]: 7
Giant foxtail plant response rating [1, 21]: 7
Plant response rating, Giant foxtail [1, 22]: 8
Velvetleaf plant response rating [2, 17]: 2
Velvetleaf plant response rating (0 to 10 scale) ([2]; Preemergence, Rate 125 g/ha): 3
Velvetleaf plant response rating [2, 18]: 7
Velvetleaf plant response rating [2, 19]: 8
Velvetleaf plant response rating [2, 20]: 2
Velvetleaf plant response rating [2, 21]: 3
Plant response rating, Velvetleaf [2, 22]: 4
Wild oats plant response rating [3, 17]: 8
Wild oats plant response rating (0 to 10 scale) ([3]; Preemergence, Rate 125 g/ha): 9
Wild oats plant response rating [3, 18]: 9
Wild oats plant response rating [3, 19]: 9
Wild oats plant response rating [3, 20]: 3
Wild oats plant response rating [3, 21]: 3
Plant response rating, Wild oats [3, 22]: 3
Barnyardgrass plant response rating [4, 23]: 6
Barnyardgrass plant response rating [4, 24]: 0
Barnyardgrass plant response rating [4, 25]: 0
Barnyardgrass plant response rating [4, 26]: 4
Barnyardgrass plant response rating [4, 27]: 7
S. Flatsedge plant response rating [5, 23]: 0
S. Flatsedge plant response rating [5, 24]: 0
S. Flatsedge plant response rating [5, 25]: 0
S. Flatsedge plant response rating [5, 26]: 0
S. Flatsedge plant response rating [5, 27]: 3
Redroot pigweed plant response rating [6, 17]: 9
Redroot pigweed plant response rating (0 to 10 scale) ([6]; Preemergence, Rate 125 g/ha): 10
Redroot pigweed plant response rating [6, 18]: 10
Redroot pigweed plant response rating [6, 19]: 10
Redroot pigweed plant response rating [6, 20]: 0
Redroot pigweed plant response rating [6, 21]: 0
Plant response rating, Redroot pigweed [6, 22]: 3
Wheat plant response rating [7, 17]: 2
Wheat plant response rating (0 to 10 scale) ([7]; Preemergence, Rate 125 g/ha): 2
Wheat plant response rating [7, 18]: 5
Wheat plant response rating [7, 19]: 7
Wheat plant response rating [7, 20]: 4
Wheat plant response rating [7, 21]: 4
Plant response rating, Wheat [7, 22]: 6
Morningglory plant response rating [8, 17]: 2
Morningglory plant response rating (0 to 10 scale) ([8]; Preemergence, Rate 125 g/ha): 6
Morningglory plant response rating [8, 18]: 6
Morningglory plant response rating [8, 19]: 8
Morningglory plant response rating [8, 20]: 4
Morningglory plant response rating [8, 21]: 5
Plant response rating, Morningglory [8, 22]: 7
Bedstraw plant response rating [9, 17]: 2
Bedstraw plant response rating (0 to 10 scale) ([9]; Preemergence, Rate 125 g/ha): 3
Bedstraw plant response rating [9, 18]: 5
Bedstraw plant response rating [9, 19]: 10
Bedstraw plant response rating [9, 20]: 4
Bedstraw plant response rating [9, 21]: 4
Plant response rating, Bedstraw [9, 22]: 7
Bedstraw plant response rating [9, 28]: 5
Blackgrass plant response rating [10, 17]: 10
Blackgrass plant response rating (0 to 10 scale) ([10]; Preemergence, Rate 125 g/ha): 10
Blackgrass plant response rating [10, 18]: 10
Blackgrass plant response rating [10, 19]: 10
Blackgrass plant response rating [10, 20]: 5
Blackgrass plant response rating [10, 21]: 7
Plant response rating, Blackgrass [10, 22]: 9
Blackgrass plant response rating [10, 28]: 9
Crabgrass plant response rating [11, 17]: 5
Crabgrass plant response rating (0 to 10 scale) ([11]; Preemergence, Rate 125 g/ha): 5
Crabgrass plant response rating [11, 18]: 7
Crabgrass plant response rating [11, 19]: 7
Crabgrass plant response rating [11, 20]: 8
Crabgrass plant response rating [11, 21]: 9
Plant response rating, Crabgrass [11, 22]: 9
B. signalgrass plant response rating [12, 17]: 4
B. signalgrass plant response rating (0 to 10 scale, 0 is no effect, 10 is complete control) ([12]; Preemergence, Rate 125 g/ha): 4
B. signalgrass plant response rating [12, 18]: 7
B. signalgrass plant response rating [12, 19]: 8
B. signalgrass plant response rating [12, 20]: 2
B. signalgrass plant response rating [12, 21]: 3
Plant response rating, B. signalgrass [12, 22]: 7
B. signalgrass plant response rating [12, 28]: 7
Soybean plant response rating [13, 17]: 0
Soybean plant response rating (0 to 10 scale) ([13]; Preemergence, Rate 125 g/ha): 0
Soybean plant response rating [13, 18]: 2
Soybean plant response rating [13, 19]: 5
Soybean plant response rating [13, 20]: 4
Soybean plant response rating [13, 21]: 4
Plant response rating, Soybean [13, 22]: 4
Cocklebur plant response rating [14, 17]: 0
Cocklebur plant response rating (0 to 10 scale) ([14]; Preemergence, Rate 125 g/ha): 0
Cocklebur plant response rating [14, 18]: 2
Cocklebur plant response rating [14, 19]: 4
Cocklebur plant response rating [14, 20]: 0
Cocklebur plant response rating [14, 21]: 0
Plant response rating, Cocklebur [14, 22]: 2
Cocklebur plant response rating [14, 28]: 7
Rice plant response rating [15, 23]: 0
Rice plant response rating [15, 24]: 0
Rice plant response rating [15, 25]: 0
Rice plant response rating [15, 26]: 0
Rice plant response rating [15, 27]: 0
Corn plant response rating [16, 17]: 0
Corn plant response rating (0 to 10 scale) ([16]; Preemergence, Rate 125 g/ha): 0
Corn plant response rating [16, 18]: 0
Corn plant response rating [16, 19]: 5
Corn plant response rating [16, 20]: 0
Corn plant response rating [16, 21]: 0
Plant response rating, Corn [16, 22]: 0
Corn plant response rating [16, 28]: 0

Source: US6737383B1, “Herbicidal oxadiazolidines” (priority 1999, dated 2004)
